The values below are quoted from earlier work in patent US8137734B2, “Preparation of controlled release skeletal muscle relaxant dosage forms” (Aptalis Pharmatech, Inc., priority 2008, dated 2012).

Regarding `CN(C)CCC=C1c2ccccc2C=Cc2ccccc21` [Cyclobenzaprine], where the note is “after oral administration”, the absorption entry is “well absorbed”. The half-life entry (elimination) is “one to three”.
